One series can be described thus: in vitro. Particulars: human, hela cells, % viability.
Take `Cc1nc(-c2ccccc2)sc1CNC(=O)COc1ccc(F)cc1` [CBK092350]: the viability (as a rule, a read-out of living cells in per cent, often relative to untreated cells) at 28.5 h, 10 µM came out at 86.3%.

As to `Cc1nc(-c2ccccc2)sc1CNC(=O)c1ccc([N+](=O)[O-])o1` [CBK092352], the viability at 28.5 h, 10 µM was determined as 54.8%.

Turning to `COc1ccc(CCCC(=O)NCc2sc(-c3ccccc3)nc2C)cc1OC` [CBK092353], the viability at 28.5 h, 10 µM came to 85.2%. Still for that read-out and setting: as for `COC(C(=O)NCc1sc(-c2ccccc2)nc1C)c1ccccc1` (stereo not shown) [CBK092362], the figure is 93.1%. Still for that read-out and setting: as for `Cc1nc(-c2ccccc2)sc1CNC(=O)C(C)c1ccc([N+](=O)[O-])cc1` (stereo not shown) [CBK092364], the figure is 98%; as for `O=C1CSC2(C(=O)N(Cc3ccccc3)c3ccccc32)N1c1ccccc1` (stereo not shown) [CBK092391], 100%; as for `O=C1CSC2(C(=O)N(Cc3cccc(C(F)(F)F)c3)c3ccccc32)N1c1ccccc1` (stereo not shown) [CBK092392], 108%. Regarding `COc1ccc(N2C(=O)CSC23C(=O)N(Cc2ccc(Cl)cc2)c2ccccc23)cc1` (stereo not shown) [CBK092396], the viability at 28.5 h, 10 µM worked out at 91.6%. Consider `COC(=O)c1ccc(CNc2nc(OC)cc(OC)n2)cc1` [CBK093391], for which the viability at 28.5 h, 10 µM worked out at 95%. Take `Nc1nn2c(c1Cc1c(Cl)cccc1Cl)OC(=O)CCC2=O` [CBK093439]: the viability at 28.5 h, 10 µM was determined as 113%. For the compound `COc1ccc(C(=O)N(CCC(C)C)Cc2nc(C)c(C)n2Cc2ccccc2Cl)c(OC)c1` [CBK093441], the viability at 28.5 h, 10 µM came out at 86.2%. Regarding `Cc1ccc(N2C(=O)CSC23C(=O)Nc2ccc(Br)cc23)cc1` (stereo not shown) [CBK093453], the viability at 28.5 h, 10 µM amounted to 84.4%. Still for that read-out and setting: for `O=C1CSC2(C(=O)Nc3ccccc32)N1c1ccc2ccccc2c1` (stereo not shown) [CBK093461] the value was 106%; for `Cc1ccc(N2C(=O)CSC23C(=O)Nc2ccccc23)cc1Br` (stereo not shown) [CBK093472], 104%. On the same count and under the same terms, for `O=C(NCc1ccccc1)c1ccc(N2C(=O)CSC23C(=O)Nc2ccccc23)cc1` (stereo not shown) [CBK093476] the value was 109%; for `O=C1CSC2(C(=O)Nc3ccccc32)N1c1cccc(F)c1` (stereo not shown) [CBK093488], 99.2%.

As for `Clc1cncc(NCCc2c[nH]c3ccccc23)n1` [CBK093514], the viability at 28.5 h, 10 µM is 56.8%. Same read-out and setting: for `Cc1ccc(S(=O)(=O)NCC2CCC(C(=O)Oc3ccc4ccc(=O)oc4c3)CC2)cc1` (stereo not shown) [CBK093519] the value was 87.9%; for `CC(C)Nc1nccnc1Sc1cccc(C(=O)O)c1` [CBK093581], 96.6%. Still for that read-out and setting: for `CC(C)Nc1cc(Sc2cccc(C(=O)O)c2)ncn1` [CBK093583] the value was 117%. Same read-out and setting: for `O=C(O)c1cccc(Sc2cc(N3CCCC3)ncn2)c1` [CBK093586] the value was 113%; for `O=C(O)c1cccc(Sc2cc(C(F)(F)F)ccn2)c1` [CBK093590], 88.7%; for `CCc1[nH]nc(C)c1Cc1c(Cl)cccc1Cl` [CBK093598], 106%. In the case of `CN(c1nc(-c2cccnc2)cn2ccnc12)C1CCCCC1` [CBK093609], the viability at 28.5 h, 10 µM was 87%.

`CC(C)(C)c1ccc(S(N)(=O)=O)cc1NC(=O)Nc1cccc(F)c1` [CBK093643]: the viability at 28.5 h, 10 µM came out at 100%. Take `NC1=NNC2=C(c3ccc(Cl)cc3Cl)NNN12` [CBK093660]: the viability at 28.5 h, 10 µM amounted to 86.4%.

For `COc1ccc(C2=C3NN=C(N)N3NN2)cc1` [CBK093662], the viability at 28.5 h, 10 µM is 84.8%. As to `NC1=C2NC(c3cccc(C(=O)O)c3)=NN2N(c2ccccc2)N1` [CBK093663], the viability at 28.5 h, 10 µM came out at 98.7%. On the same count and under the same terms, for `CC(C)Nc1nccnc1Sc1cccc(O)c1` [CBK093725] the value was 111%. For the compound `CC(C)Nc1cncc(Sc2ccccc2N)n1` [CBK093726], the viability at 28.5 h, 10 µM amounted to 91.7%. Take `CC(C)Nc1cc(Sc2ccccc2N)ncn1` [CBK093729]: the viability at 28.5 h, 10 µM was 91.6%. The same measure, in the same setting: as for `CC(C)Nc1nc2cc(Cl)c(Cl)cc2nc1Sc1cccc(O)c1` [CBK093732], the figure is 94.8%; as for `c1ccc(Sc2nccnc2N2CCCC2)nc1` [CBK093734], 87.7%; as for `Cc1csc(Sc2nccnc2N2CCCC2)n1` [CBK093735], 90.3%.

As for `COCc1nnc(Sc2nccnc2N2CCCC2)s1` [CBK093736], the viability at 28.5 h, 10 µM stood at 95.4%. Still for that read-out and setting: for `Cc1csc(Sc2cc(N3CCCC3)ncn2)n1` [CBK093745] the value was 100%. Same read-out and setting: as for `COCc1nnc(Sc2cc(N3CCCC3)ncn2)s1` [CBK093746], the figure is 88.4%; as for `Oc1cccc(Sc2cc(N3CCCC3)ncn2)c1` [CBK093749], 97.4%.

Regarding `Nc1nnc(Sc2nc3ccccc3nc2N2CCCC2)s1` [CBK093750], the viability at 28.5 h, 10 µM is 88.4%. As for `Cc1nnc(Sc2nc3ccccc3nc2N2CCCC2)s1` [CBK093751], the viability at 28.5 h, 10 µM came out at 89.1%. On the same count and under the same terms, for `Oc1cccc(Sc2nc3ccccc3nc2N2CCCC2)c1` [CBK093753] the value was 88.5%.

Turning to `Cn1ccnc1Sc1ncccc1C(F)(F)F` [CBK093759], the viability at 28.5 h, 10 µM amounted to 91.2%. Same read-out and setting: for `COc1ccc(Sc2ncccc2C(F)(F)F)cc1OC` [CBK093760] the value was 100%; for `Nc1ccccc1Sc1cc(C(F)(F)F)ccn1` [CBK093761], 91.4%; for `COc1ccc(Sc2cccc(C(F)(F)F)n2)cc1OC` [CBK093769], 94%. Turning to `COc1ccc(Sc2nccc(C(F)(F)F)n2)cc1OC` [CBK093772], the viability at 28.5 h, 10 µM was 90.4%.

Take `Cc1nnc(Sc2nc3ccccc3nc2C(F)(F)F)s1` [CBK093774]: the viability at 28.5 h, 10 µM was determined as 94.8%. Still for that read-out and setting: as for `Cc1csc(Sc2nc3ccccc3nc2C(F)(F)F)n1` [CBK093775], the figure is 94.9%; as for `Nc1ccccc1Sc1nc2ccccc2nc1C(F)(F)F` [CBK093776], 96.1%. The same measure, in the same setting: for `FC(F)(F)c1nc2ccccc2nc1Sc1ccccn1` [CBK093781] the value was 89%; for `FC(F)(F)c1ccnc(Sc2ccccn2)n1` [CBK093786], 99.3%; for `COCc1nnc(Sc2nccc(C(F)(F)F)n2)s1` [CBK093790], 99.5%. On the same count and under the same terms, for `COc1ccc(Sc2nc3cc(Cl)c(Cl)cc3nc2NC(C)C)cc1OC` [CBK093792] the value was 103%; for `FC(F)(F)c1ccnc(Sc2ccncc2)c1` [CBK093793], 92.3%. On to `Nc1nnc(Sc2nc3ccccc3nc2C(F)(F)F)s1` [CBK093795], for which the viability at 28.5 h, 10 µM came to 94.6%. Consider `Cn1ccnc1Sc1cc(C(F)(F)F)ccn1` [CBK093798], for which the viability at 28.5 h, 10 µM came to 80.5%. On the same count and under the same terms, as for `Oc1cccc(Sc2nccc(C(F)(F)F)n2)c1` [CBK093801], the figure is 96.6%; as for `FC(F)(F)c1ccnc(Sc2nc[nH]n2)n1` [CBK093806], 93.1%; as for `COc1ccc(-c2ccc(OC3CCNCC3)cc2)c(OC)c1` [CBK093816T], 91.2%.

For the compound `Cc1ccc2oc(-c3ccc(O)cc3)nc2c1` [CBK093878], the viability at 28.5 h, 10 µM amounted to 96.2%. Regarding `S=c1[nH]cnc2scc(-c3ccc(Cl)cc3)c12` [CBK094069], the viability at 28.5 h, 10 µM was found to be 76.5%. With `Cc1c(C#N)c2ccc(O)c(CN(C)C)c2n1-c1ccccc1` [CBK094247C], the viability at 28.5 h, 10 µM was found to be 98.2%. Still for that read-out and setting: as for `Cc1ccccc1/N=C1/NC(=O)/C(=C/c2ccc([N+](=O)[O-])o2)S1` [CBK094584], the figure is 96.6%; as for `CCOc1ccc(-c2csc(NC(=O)c3cccnc3)n2)cc1` [CBK094747], 89.2%; as for `O=C1CC(c2ccc(Br)cc2)Nc2ccc3ccccc3c21` (stereo not shown) [CBK094798], 93.4%. With `CC(C)(C)c1ccc(-n2cc(-c3ccc(F)cc3F)nn2)cc1` [CBK094818], the viability at 28.5 h, 10 µM stood at 85.4%. With `Cc1ccc(-c2csc(NC(=O)c3ccc(F)cc3)n2)cc1` [CBK095107], the viability at 28.5 h, 10 µM turned out to be 85.2%. The same measure, in the same setting: as for `O=C1S/C(=C\c2ccc(F)c(Br)c2)C(=O)N1c1cccc(Cl)c1` [CBK095450], the figure is 87.7%. The same measure, in the same setting: as for `CC(C)(C)c1ccc(S(=O)(=O)N2CCSC2)cc1` [CBK095672], the figure is 101%; as for `O=C(Nc1nnc(C(F)(F)F)s1)c1cc(Cl)ccc1Cl` [CBK095734], 86.3%. Same read-out and setting: for `COc1ccc(CCNC(=O)CSc2nc(N)c3c4c(sc3n2)CCCC4)cc1` [CBK095784] the value was 94.2%; for `CC(=O)Nc1ccc(N2C(=O)CSC23C(=O)Nc2ccccc23)cc1` (stereo not shown) [CBK095916], 91.7%; for `CCN(CC)c1ccc(NC(=O)COc2ccccc2)cc1` [CBK096048], 91.9%. Turning to `CCOC(=O)C1CCN(S(=O)(=O)c2ccc(Cl)s2)CC1` [CBK096109], the viability at 28.5 h, 10 µM turned out to be 94.9%. Still for that read-out and setting: as for `C=CCn1c(S)nnc1-c1ccc(Br)cc1` [CBK096756], the figure is 77.3%.

For `O=C(O)c1ccccc1SC(C[N+](=O)[O-])c1ccccc1Cl` (stereo not shown) [CBK097071], the viability at 28.5 h, 10 µM turned out to be 95.6%. The same measure, in the same setting: as for `CCOC(=O)c1sc2nc(C)cc(C)c2c1N` [CBK097355], the figure is 82.9%; as for `COc1ccc(S(=O)(=O)N2CCSC2)cc1C` [CBK097882], 106%. On the same count and under the same terms, as for `Nc1ncnc2sc3c(c12)CCC3` [CBK097952], the figure is 89.7%.

The same series, now with this note: human, hela cells, % viability, bulk resorufin, single well.
`COC(=O)c1nn(Cc2ccc(OC)cc2)c2ccccc12` [CBK093526]: the viability at 28.5 h, 10 µM came out at 31.4%.

For the compound `COc1ccc(Cn2nc(C(=O)O)c3ccccc32)cc1OC` [CBK093529], the viability at 28.5 h, 10 µM is 93%. With `O=C(Nc1cccc(-c2ccc3c(c2)COC2(CCNCC2)O3)c1)c1cnccn1` [CBK093670], the viability at 28.5 h, 10 µM came out at 90.5%.

Take `CCc1ccc(C(=O)Nc2cccc(-c3ccc4c(c3)COC3(CCNCC3)O4)c2)cc1` [CBK093680]: the viability at 28.5 h, 10 µM was 67.5%. Still for that read-out and setting: for `CC1(C)CC(=O)C=C(C(=O)Nc2cccc(-c3ccc4c(c3)COC3(CCNCC3)O4)c2)O1` [CBK093704] the value was 97.8%; for `c1cc(-c2ccc3c(c2)COC2(CCNCC2)O3)c2cc[nH]c2c1` [CBK093812], 108%.

For the origin of these results see article PMC12040169 (PLOS Biology, 2025).
